The source of these data is US12016841B2, “Methods and compositions for treatment of presbyopia, mydriasis, and other ocular disorders” (Ocuphire Pharma, Inc., priority 2018, dated 2024).

Structures can show the parent of a compound that is named as a salt.

This assay relates to patients with pupil sizes of at least 7 mm in diameter under dim light conditions. The assay can be described thus: Pupil diameter after one drop of 0.2%, 0.4% or 0.8% (w/v) phentolamine mesylate solution (clinical study, NeurOptics pupilometer). The assay is classed as in vivo, human. How it is done:
Reduction in pupil diameter can be analyzed and characterized using procedures such as those described below in which a phentolamine mesylate solution was administered to patients' eyes and change in pupil diameter was measured and characterized. […] The phentolamine mesylate solution contained either 0.2% (w/v) phentolamine mesylate, 0.4% (w/v) phentolamine mesylate, or 0.8% (w/v) phentolamine mesylate.
Sixteen patients were randomized into four groups (of four subjects each). Each group was treated on three successive study visits separated by at least 4 days with one drop of ophthalmic oxymetazoline solution (Visine LR®) in each eye followed by one drop test article in each eye. The test article was a 0.2% (w/v) phentolamine mesylate solution, 0.4% (w/v) phentolamine mesylate solution, 0.8% (w/v) phentolamine mesylate solution, or placebo. Test articles contained the designed amount of phentolamine mesylate in a solution of Tears Naturale II® (from Alcon Labs). Placebo was just Tears Naturale II® (from Alcon Labs). Tears Naturale II® (from Alcon Labs) contains Dextran 70 (0.1% by weight), Hydroxypropyl Methylcellulose 2910 (0.3% by weight), Polyquaternium-1 (0.001% by weight), potassium chloride, water (purified), sodium borate, sodium chloride, and hydrochloric acid and/or sodium hydroxide as necessary to adjust the pH. The patients' pupil diameters were recorded at baseline (i.e., prior to treatment administration), and at 30 minutes, 1 hour, 2 hours, 4 hours, and 8 hours after administration of test articles. Total study duration was approximately nine hours.
Pupil diameters were measured to within 0.1 mm for each eye at baseline and each subsequent time point using a NeurOptics™ pupilometer. Comparisons of changes in mean values within treatment groups were tested for significance using two-tailed paired two sample t-tests with a threshold for significance set at p<0.01 (Bonferroni Correction for multiple paired t-tests). Differences between treatment groups with respect to mean values for pupil size over the course of the study were tested for significance using repeated measure ANOVA (which discards data from subjects lacking any data points). Differences in means between treatment groups at individual time points were tested for significance using one-way ANOVA.

With `Cc1ccc(N(CC2=NCCN2)c2cccc(O)c2)cc1` [phentolamine], the “differences in mean pupil diameters between different doses” value (any time point) is on record as “no statistically significant differences”. Also, the mean pupil diameters result (one hour post treatment) was “lower”.
On to `Cc1ccc(N(CC2=NCCN2)c2cccc(O)c2)cc1` [phentolamine mesylate], for which the “mean pupil diameters compared to placebo (ad hoc Fisher's tests)” value (any concentration, 2, 4 and 8 hours) is listed as “significant differences in mean pupil diameters”. Further, the “mean changes in pupil diameters from baseline as a function of time” value (over the course of the study) is “significant reductions in pupil size”.
